Data as given in US20230219921A1, “KCNT1 INHIBITORS AND METHODS OF USE” (Praxis Precision Medicines, Inc., priority 2020, published 2023).

Target: T1, KCNT1 (KNa1.1, Slack) (Homo sapiens, UniProt Q5JUK3)
T1 construct: expressed in transfected cells; host or cells: HEK-TREX (tetracycline-inducible HEK cell line)
T1 sequence (Q5JUK3 1-1230): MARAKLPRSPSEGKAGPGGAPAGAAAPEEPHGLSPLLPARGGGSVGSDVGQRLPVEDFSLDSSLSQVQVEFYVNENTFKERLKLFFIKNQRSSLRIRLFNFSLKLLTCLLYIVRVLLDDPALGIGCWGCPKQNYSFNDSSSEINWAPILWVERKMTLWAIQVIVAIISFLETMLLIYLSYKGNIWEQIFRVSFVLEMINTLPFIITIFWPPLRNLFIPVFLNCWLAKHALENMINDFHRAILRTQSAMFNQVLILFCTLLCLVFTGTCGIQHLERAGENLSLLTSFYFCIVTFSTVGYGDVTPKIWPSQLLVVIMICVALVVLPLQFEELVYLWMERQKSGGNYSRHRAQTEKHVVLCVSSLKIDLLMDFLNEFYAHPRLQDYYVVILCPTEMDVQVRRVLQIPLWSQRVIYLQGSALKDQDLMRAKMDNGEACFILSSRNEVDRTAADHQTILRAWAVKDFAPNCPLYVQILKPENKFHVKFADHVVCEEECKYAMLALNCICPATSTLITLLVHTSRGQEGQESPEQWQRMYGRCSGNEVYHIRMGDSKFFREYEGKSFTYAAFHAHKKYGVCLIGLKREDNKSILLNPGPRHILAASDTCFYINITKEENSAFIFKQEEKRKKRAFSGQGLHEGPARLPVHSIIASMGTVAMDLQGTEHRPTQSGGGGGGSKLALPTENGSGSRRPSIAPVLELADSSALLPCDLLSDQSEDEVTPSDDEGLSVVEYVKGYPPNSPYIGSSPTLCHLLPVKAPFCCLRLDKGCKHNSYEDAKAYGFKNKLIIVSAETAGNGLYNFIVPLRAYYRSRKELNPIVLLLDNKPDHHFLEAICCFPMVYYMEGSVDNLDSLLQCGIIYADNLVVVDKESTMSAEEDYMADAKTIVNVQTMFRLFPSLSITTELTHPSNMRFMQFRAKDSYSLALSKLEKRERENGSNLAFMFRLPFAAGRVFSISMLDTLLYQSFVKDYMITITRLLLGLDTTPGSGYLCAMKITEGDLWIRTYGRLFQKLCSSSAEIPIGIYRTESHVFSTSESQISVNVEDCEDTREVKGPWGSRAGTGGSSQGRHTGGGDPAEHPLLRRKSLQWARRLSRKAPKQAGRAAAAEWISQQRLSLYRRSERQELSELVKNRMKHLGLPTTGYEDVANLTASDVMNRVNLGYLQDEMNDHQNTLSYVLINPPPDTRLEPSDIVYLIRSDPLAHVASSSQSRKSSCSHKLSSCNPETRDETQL
Experiment: KCNT1 patch clamp assay (SyncroPatch 384PE automated patch clamp)
Format: cell-based
Details: tetracycline inducible cell line (HEK-TREX); perforated patch mode; step from -80 mV to 0 mV; room temperature; read-out: KCNT1-WT IC50
Protocol: Inhibition of KCNT1 (KNa1.1, Slack) was evaluated using a tetracycline inducible cell line (HEK-TREX). Currents were recorded using the SyncroPatch 384PE automated, patch clamp system. Pulse generation and data collection were performed with PatchController384 V1.3.0 and DataController384 V1.2.1 (Nanion Technologies). The access resistance and apparent membrane capacitance were estimated using built-in protocols. Current were recorded in perforated patch mode (10 μM escin) from a population of cells. The cells were lifted, triturated, and resuspended at 800,000 cells/ml. The cells were allowed to recover in the cell hotel prior to experimentation. Currents were recorded at room temperature. The external solution contained the following (in mM): NaCl 105, NMDG 40, KCl 4, MgCl2 1, CaCl2 5 and HEPES 10 (pH=7.4, Osmolarity ˜300 mOsm). The extracellular solution was used as the wash, reference and compound delivery solution. The internal solution contained the following (in mM): NaCl 70, KF 70, KCl 10, EGTA 5, HEPES 5 and Escin 0.01 (pH=7.2, Osmolarity ˜295 mOsm). Escin is made at a 5 mM stock in water, aliquoted, and stored at −20° C. The compound plate was created at 2× concentrated in the extracellular solution. The compound was diluted to 1:2 when added to the recording well. The amount of DMSO in the extracellular solution was held constant at the level used for the highest tested concentration. A holding potential of −80 mV with a 100 ms step to 0 mV was used. Mean current was measured during the step to 0 mV. […] The average mean current from 3 sweeps was calculated and the % inhibition of each compound was calculated. The % Inhibition as a function of the compound concentration was fit with a Hill equation to derive IC50, slope, min and max parameters. If KCNT1 inhibition was less than 50% at the highest tested concentration or if an IC50 could not be calculated, then a percent inhibition was reported in place of the IC50.
In this table, “A” indicates IC50 of less than or equal to 1 μM; “B” indicates inhibition of between 1 μM to 20 μM; and “C” indicates inhibition of greater than or equal to 20 μM.

IC50 | SMILES
1000 to 20000 nM | CNS(=O)(=O)c1ccc(C(=O)NCc2ccc(OCC(F)(F)F)cc2)s1 [Compound 35, 5-(N-methylsulfamoyl)-N-(4-(2,2,2-trifluoroethoxy)benzyl)thiophene-2-carboxamide]
≤ 1000 nM | CNS(=O)(=O)c1ccc(C(=O)NCc2ccc(C(C)(C)C)cc2)s1 [Compound 28, N-(4-(tert-butyl)benzyl)-5-(N-methylsulfamoyl)thiophene-2-carboxamide]
≤ 1000 nM | CS(=O)(=O)c1ccc(C(=O)NCc2ccc(C(F)(F)F)cc2F)s1 [Compound 42, N-(2-fluoro-4-(trifluoromethyl)benzyl)-5-(methylsulfonyl)thiophene-2-carboxamide]
≤ 1000 nM | CS(=O)(=O)c1ccc(C(=O)NCc2ccc(C3CC3)cc2)s1 [Compound 31, N-(4-cyclopropylbenzyl)-5-(methylsulfonyl)thiophene-2-carboxamide]
≤ 1000 nM | CNS(=O)(=O)c1ccc(C(=O)NCc2ccc(C3CC3)cc2)s1 [Compound 26, N-(4-cyclopropylbenzyl)-5-(N-methylsulfamoyl)thiophene-2-carboxamide]
≤ 1000 nM | CNS(=O)(=O)c1ccc(C(=O)NCc2ccc(C(C)C)cc2)s1 [Compound 19, N-(4-isopropylbenzyl)-5-(N-methylsulfamoyl)thiophene-2-carboxamide]
